{
  "source": "paper PMC9789040",
  "about": "“Inhibition of triple negative breast cancer-associated inflammation and progression by N- acylethanolamine acid amide hydrolase (NAAA)” (Scientific Reports, 2022)",
  "molecular_target": "T1, N-acylethanolamine acid amidase (NAAA) (Homo sapiens, UniProt Q02083)",
  "T1 construct": "purified human NAAA",
  "T1 sequence (Q02083 29-125)": "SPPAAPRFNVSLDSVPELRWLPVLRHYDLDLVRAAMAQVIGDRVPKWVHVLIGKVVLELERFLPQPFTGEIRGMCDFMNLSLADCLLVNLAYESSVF",
  "T1 sequence (Q02083 126-359)": "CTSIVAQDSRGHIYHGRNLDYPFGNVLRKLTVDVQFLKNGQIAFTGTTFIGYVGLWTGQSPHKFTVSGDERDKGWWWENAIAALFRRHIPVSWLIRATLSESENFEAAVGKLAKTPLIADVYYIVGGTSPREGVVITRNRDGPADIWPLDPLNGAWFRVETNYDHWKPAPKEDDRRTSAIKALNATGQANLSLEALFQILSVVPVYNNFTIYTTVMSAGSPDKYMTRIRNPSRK",
  "test": "fluorogenic PAMCA hydrolysis assay with purified human NAAA, […] min preincubation, 8-point curve",
  "type": "biochemical",
  "data": [
    {"molecule": "COc1ccc(-c2ccc(COC3CC(N=C=S)C3)nc2)cc1F", "note": "(stereo not shown) [AM11095]", "values": [
      {"measurement": "IC50", "result": 20, "unit": "nM"}
    ]}
  ]
}
